Columns and labels:
[1] = system: V1a receptor knockout mice, V1b receptor knockout mice, and control mice; assay: Tail-flick test, development of tolerance to morphine in V1a/V1b receptor knockout and control mice (Example 1); type: in vivo; conditions: 10 mg/kg s.c. once a day for 15 days, FIG. 1
Experimental: V1a receptor knockout mice (Neuroscience Letters, 356, pp. 195-198, 2004), V1b receptor knockout mice (J. Clin. Invest., 113, pp. 302-309, 2004), and control mice (body weight: about 30 g) were subcutaneously (s.c.) given with 10 mg/kg of morphine hydrochloride once a day, which was repeated for 15 days. The analgesic effect was evaluated by the tail-flick test on 1st, 5th, 9th, 12th and 15th days after the administration on the basis of the maximal possible effect (% MPE), which represents analgesic intensity and is calculated in accordance with the following equation.
(§1) % MPE=100×[(Measured value after treatment−Measured value before treatment)[…](Cut-off value−Measured value before treatment)]

ddY mice = assay: Tail-flick test, tolerance to morphine analgesic induced by repeated morphine, with V1 receptor antagonist i.c.v. (Example 2); type: in vivo; conditions: male ddY mice; antagonist 0.5, 5 or 10 ng i.c.v. + morphine hydrochloride 10 mg/kg s.c. twice a day for 5 days; 1st, 3rd and 5th days; FIGS. 2 to 4
Experimental: as §1
Male ddY mice (5- or 6-week old) were intracerebroventricularly (i.c.v.) given with 5 μl of physiological saline or a V1 receptor antagonist (0.5, 5 or 10 ng), and immediately after the administration, the mice were subcutaneously given with 10 mg/kg of morphine hydrochloride, which was repeated twice a day for 5 days to induce tolerance to morphine analgesic. The analgesic effect was evaluated by the tail-flick test on 1st, 3rd and 5th days after the administration on the basis of intensity of analgesic effect using % MPE and AUC (area under the time-reaction curve, Area Under the Curve). As the V1 receptor antagonist, the following three types of antagonists were used.

## CN1CC[C@]23c4c5ccc(O)c4O[C@H]2[C@@H](O)C=C[C@H]3[C@H]1C5.Cl [morphine, morphine hydrochloride]
[1]; V1a receptor knockout mice
  development of tolerance to analgesic effect (% MPE): tolerance to morphine was developed
[1]; V1b receptor knockout mice
  development of tolerance to analgesic effect (% MPE): remarkable resistance against tolerance to morphine was observed
[1]; control mice
  development of tolerance to analgesic effect (% MPE): tolerance to morphine was developed

## [phenylacetyl, O-Me-D-Try, Arg, Lys]-vasopressin amide [PhAcALVP]
ddY mice
  effect on development of tolerance to morphine (% MPE and AUC): had no effect on the tolerance development

## [β-mercapto-β,β-cyclopentamethylenepropionyl, O-Me-Tyr, Arg]-vasopressin [d(CH2)5Tyr(Me)AVP]
ddY mice
  effect on development of tolerance to morphine (% MPE and AUC): had no effect on the tolerance development

## deamino-Pen, O-Me-Tyr, Arg]-vasopressin [dPenTyr(Me)AVP]
ddY mice
  effect on development of tolerance to morphine (% MPE and AUC): suppressed the development of tolerance

Source: US20100004275A1, “AGENT FOR SUPPRESSING DEVELOPMENT OF TOLERANCE TO NARCOTIC ANALGESICS” (KYOTO UNIVERSITY, priority 2004, published 2010)
